Results taken from US9328112B2, “Tetracyclic CDK9 kinase inhibitors” (AbbVie Inc., priority 2014, dated 2016).

What was measured:
H929 cells = test: Cell viability assay (Cell TiterGlo); format: cell-based; conditions: Homo sapiens, NCI-H929, 24 hours at 37° C., Cell TiterGlo luminescence
Description: The cell viability assay was performed using H929 cells. Cells were seeded in 96-well plates at 10,000 cells/well and, after overnight incubation, treated with compounds in a dose response of 3-fold dilutions from 10 μM to 0.005 μM ([…], 0.1% final DMSO concentration). After 24 hours at 37° C., cell viability was measured using Cell TiterGlo reagent (Promega) with a luminescence reader.

CDK9/Cyclin T1 = CDK9/Cyclin T1 (Homo sapiens (Human), UniProt P50750); test: CDK9 enzyme assay (LANCE ULight TR-FRET kinase assay); format: biochemical; conditions: 1000 μM ATP, 100 nM ULight MBP, kinase reaction 1 hour
CDK9/Cyclin T1, sequence (P50750 whole entry): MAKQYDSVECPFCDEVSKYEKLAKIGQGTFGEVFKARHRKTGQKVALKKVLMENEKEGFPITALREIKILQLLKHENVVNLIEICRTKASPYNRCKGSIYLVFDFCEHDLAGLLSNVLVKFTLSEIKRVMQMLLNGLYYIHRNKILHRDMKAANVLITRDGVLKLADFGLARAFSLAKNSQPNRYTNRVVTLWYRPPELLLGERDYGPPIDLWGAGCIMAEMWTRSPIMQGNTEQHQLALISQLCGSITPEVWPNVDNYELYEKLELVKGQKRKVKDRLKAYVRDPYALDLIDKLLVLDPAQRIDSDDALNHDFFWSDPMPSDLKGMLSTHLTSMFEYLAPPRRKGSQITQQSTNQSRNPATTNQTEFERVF
CDK9/Cyclin T1, sequence (O60563 whole entry partner): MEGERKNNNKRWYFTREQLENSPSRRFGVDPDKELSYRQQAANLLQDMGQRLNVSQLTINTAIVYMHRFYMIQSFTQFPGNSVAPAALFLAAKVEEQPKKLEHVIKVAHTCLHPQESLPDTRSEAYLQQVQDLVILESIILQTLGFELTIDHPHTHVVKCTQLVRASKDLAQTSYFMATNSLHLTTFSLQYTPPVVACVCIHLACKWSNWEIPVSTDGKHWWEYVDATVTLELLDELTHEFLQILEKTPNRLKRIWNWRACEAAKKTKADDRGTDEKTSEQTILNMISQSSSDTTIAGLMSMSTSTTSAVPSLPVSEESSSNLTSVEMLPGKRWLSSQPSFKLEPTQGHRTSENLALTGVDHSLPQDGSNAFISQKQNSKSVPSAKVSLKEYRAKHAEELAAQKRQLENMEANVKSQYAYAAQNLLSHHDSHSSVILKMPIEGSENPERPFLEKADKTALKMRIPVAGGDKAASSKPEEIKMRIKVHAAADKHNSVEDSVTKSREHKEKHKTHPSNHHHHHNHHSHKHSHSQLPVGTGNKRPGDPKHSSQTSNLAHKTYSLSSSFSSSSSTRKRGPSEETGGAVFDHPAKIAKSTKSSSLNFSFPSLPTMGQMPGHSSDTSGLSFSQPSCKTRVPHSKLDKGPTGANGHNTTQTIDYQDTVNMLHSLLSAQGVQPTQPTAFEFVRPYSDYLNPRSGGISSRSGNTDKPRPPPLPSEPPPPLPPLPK
Description: CDK9 enzyme activities were measured using LANCE ULight TR-FRET kinase assay reagents (PerkinElmer, Waltham, Mass.). Compounds were diluted in 100% DMSO then diluted with 1:10 in serine/threonine kinase assay buffer containing 20 mM HEPES, 10 mM MgCl2, […], and 0.0075% Triton X-100. Equal volume of the compound dilutions was added to a final reaction mixture containing LANCE detection buffer (PerkinElmer CR97-100), 100 nM ULight MBP (PerkinElmer TRF0109M), 1000 μM ATP, and CDK9/Cyclin T1 (Carna Biosciences 04-110). The kinase reaction was carried out for 1 hour before addition of stopping buffer to a final of 20 mM EDTA and 0.5 nM of LANCE Ultra Europium anti-phospho-MBP antibody (PerkinElmer TRF0201M) in LANCE detection buffer. The reaction was incubated for 1 hour and the signal was read in Envision in TR-FRET mode (excitation at 320 nm and emission at 615/665 nm).

SMILES	IC50 (H929 cells) [nM]	IC50 (CDK9/Cyclin T1) [nM]
CN1Cc2c(C3=CCN(CC(=O)N4CCC[C@H]4CO)CC3)[nH]c3nccc(c23)-c2cc(F)ccc21 [Example 17, 2-[4-(10-fluoro-7-methyl-6,7-dihydro-4H-3,4,7-triazadibenzo[cd,f]azulen-5-yl)-3,6-dihydropyridin-1(2H)-yl]-1-[(2S)-2-(hydroxymethyl)pyrrolidin-1-yl]ethanone]	9	70
CN1Cc2c(C3=CCN(CC(=O)N4CC(O)C4)CC3)[nH]c3nccc(c23)-c2cc(F)ccc21 [Example 18, 2-[4-(10-fluoro-7-methyl-6,7-dihydro-4H-3,4,7-triazadibenzo[cd,f]azulen-5-yl)-3,6-dihydropyridin-1(2H)-yl]-1-(3-hydroxyazetidin-1-yl)ethanone]	160	44
CN(CCO)C(=O)CN1CC=C(c2[nH]c3nccc4c3c2CN(C)c2ccc(F)cc2-4)CC1 [Example 19, 2-[4-(10-fluoro-7-methyl-6,7-dihydro-4H-3,4,7-triazadibenzo[cd,f]azulen-5-yl)-3,6-dihydropyridin-1(2H)-yl]-N-(2-hydroxyethyl)-N-methylacetamide]	8	48
CC1c2c(C3=CCN(S(C)(=O)=O)CC3)[nH]c3nccc(c23)-c2cc(F)ccc2N1C (stereo not shown) [Example 20, 10-fluoro-6,7-dimethyl-5-[1-(methylsulfonyl)-1,2,3,6-tetrahydropyridin-4-yl]-6,7-dihydro-4H-3,4,7-triazadibenzo[cd,f]azulene]	47	110
CN1Cc2c(C3CCNCC3)[nH]c3nccc(c23)-c2cc(F)ccc21 [Example 21, 10-fluoro-7-methyl-5-(piperidin-4-yl)-6,7-dihydro-4H-3,4,7-triazadibenzo[cd,f]azulene]	460	400
CN1Cc2c(C3=CCN(CC(=O)N(C)C4CC(O)C4)CC3)[nH]c3nccc(c23)-c2cc(F)ccc21 (stereo not shown) [Example 24, 2-[4-(10-fluoro-7-methyl-6,7-dihydro-4H-3,4,7-triazadibenzo[cd,f]azulen-5-yl)-3,6-dihydropyridin-1(2H)-yl]-N-(3-hydroxycyclobutyl)-N-methylacetamide]	27	40
CNS(=O)(=O)CC(=O)N1CC=C(c2[nH]c3nccc4c3c2CN(C)c2ccc(F)cc2-4)CC1 [Example 25, 2-[4-(10-fluoro-7-methyl-6,7-dihydro-4H-3,4,7-triazadibenzo[cd,f]azulen-5-yl)-3,6-dihydropyridin-1(2H)-yl]-N-methyl-2-oxoethanesulfonamide]	65	22
CN1Cc2c(C3CCN(CC(=O)N4CCC[C@H]4CO)CC3)[nH]c3nccc(c23)-c2cc(F)ccc21 [Example 26, 2-[4-(10-fluoro-7-methyl-6,7-dihydro-4H-3,4,7-triazadibenzo[cd, f]azulen-5-yl)piperidin-1-yl]-1-[(2S)-2-(hydroxymethyl)pyrrolidin-1-yl]ethanone]	150	93
CN(CCO)C(=O)CN1CCC(c2[nH]c3nccc4c3c2CN(C)c2ccc(F)cc2-4)CC1 [Example 27, 2-[4-(10-fluoro-7-methyl-6,7-dihydro-4H-3,4,7-triazadibenzo[cd,f]azulen-5-yl)piperidin-1-yl]-N-(2-hydroxyethyl)-N-methylacetamide]	210	91
CCOC(=O)C1c2c(C3=CCNCC3)[nH]c3nccc(c23)-c2cc(F)ccc2N1C (stereo not shown) [Example 28, ethyl 10-fluoro-7-methyl-5-(1,2,3,6-tetrahydropyridin-4-yl)-6,7-dihydro-4H-3,4,7-triazadibenzo[cd,f]azulene-6-carboxylate]	25	150
CC(C)[C@@H](NC1CC=C(c2[nH]c3nccc4c3c2CN(C)c2ccc(F)cc2-4)CC1)C(=O)O (stereo partly drawn) [Example 29, N-[4-(10-fluoro-7-methyl-6,7-dihydro-4H-3,4,7-triazadibenzo[cd,f]azulen-5-yl)cyclohex-3-en-1-yl]-D-valine]	94	46
C[C@H](NC1CC=C(c2[nH]c3nccc4c3c2CN(C)c2ccc(F)cc2-4)CC1)C(=O)O (stereo partly drawn) [Example 30, N-[4-(10-fluoro-7-methyl-6,7-dihydro-4H-3,4,7-triazadibenzo[cd,f]azulen-5-yl)cyclohex-3-en-1-yl]-L-alanine]	100	100
CN1Cc2c(C3=CCC(NCC(=O)O)CC3)[nH]c3nccc(c23)-c2cc(F)ccc21 (stereo not shown) [Example 31, N-[4-(10-fluoro-7-methyl-6,7-dihydro-4H-3,4,7-triazadibenzo[cd,f]azulen-5-yl)cyclohex-3-en-1-yl]glycine]	70	86
CN1Cc2c(C3=CCC(N[C@H](C(=O)O)c4ccccc4)CC3)[nH]c3nccc(c23)-c2cc(F)ccc21 (stereo partly drawn) [Example 32, (2S)-{[4-(10-fluoro-7-methyl-6,7-dihydro-4H-3,4,7-triazadibenzo[cd,f]azulen-5-yl)cyclohex-3-en-1-yl]amino}(phenyl)acetic acid]	170	56
CN1c2ccc(F)cc2-c2ccnc3[nH]c(C4=CCNCC4)c(c23)C1C(=O)O (stereo not shown) [Example 33, 10-fluoro-7-methyl-5-(1,2,3,6-tetrahydropyridin-4-yl)-6,7-dihydro-4H-3,4,7-triazadibenzo[cd,f]azulene-6-carboxylic acid]	150	540
CN1Cc2c(C3=CCN(CC(=O)N4CC[C@H](O)C4)CC3)[nH]c3nccc(c23)-c2cc(F)ccc21 [Example 42, 2-[4-(10-fluoro-7-methyl-6,7-dihydro-4H-3,4,7-triazadibenzo[cd,f]azulen-5-yl)-3,6-dihydropyridin-1(2H)-yl]-1-[(3S)-3-hydroxypyrrolidin-1-yl]ethanone]	79	48

Further lines, results first:

IC50 (H929 cells) [nM]	IC50 (CDK9/Cyclin T1) [nM]	SMILES
92	120	CC(C)[C@H](NC1CC=C(c2[nH]c3nccc4c3c2CN(C)c2ccc(F)cc2-4)CC1)C(=O)O (stereo partly drawn) [Example 34, N-[4-(10-fluoro-7-methyl-6,7-dihydro-4H-3,4,7-triazadibenzo[cd,f]azulen-5-yl)cyclohex-3-en-1-yl]-L-valine]
91	61	CN1Cc2c(C3=CCC(N[C@@H](Cc4ccccc4)C(=O)O)CC3)[nH]c3nccc(c23)-c2cc(F)ccc21 (stereo partly drawn) [Example 35, N-[4-(10-fluoro-7-methyl-6,7-dihydro-4H-3,4,7-triazadibenzo[cd,f]azulen-5-yl)cyclohex-3-en-1-yl]-L-phenylalanine]
25	64	CN1Cc2c(C3=CCC(N[C@H](C(=O)O)C(C)(C)C)CC3)[nH]c3nccc(c23)-c2cc(F)ccc21 (stereo partly drawn) [Example 36, N-[4-(10-fluoro-7-methyl-6,7-dihydro-4H-3,4,7-triazadibenzo[cd,f]azulen-5-yl)cyclohex-3-en-1-yl]-3-methyl-L-valine]
290	160	CN1Cc2c(C3=CCC(N4CCC[C@H]4C(=O)O)CC3)[nH]c3nccc(c23)-c2cc(F)ccc21 (stereo partly drawn) [Example 37, 1-[4-(10-fluoro-7-methyl-6,7-dihydro-4H-3,4,7-triazadibenzo[cd,f]azulen-5-yl)cyclohex-3-en-1-yl]-L-proline]
270	91	CN1Cc2c(C3=CCC(N[C@@H](CO)C(=O)O)CC3)[nH]c3nccc(c23)-c2cc(F)ccc21 (stereo partly drawn) [Example 38, N-[4-(10-fluoro-7-methyl-6,7-dihydro-4H-3,4,7-triazadibenzo[cd,f]azulen-5-yl)cyclohex-3-en-1-yl]-L-serine]
99	130	CCC[C@H](NC1CC=C(c2[nH]c3nccc4c3c2CN(C)c2ccc(F)cc2-4)CC1)C(=O)O (stereo partly drawn) [Example 39, N-[4-(10-fluoro-7-methyl-6,7-dihydro-4H-3,4,7-triazadibenzo[cd,f]azulen-5-yl)cyclohex-3-en-1-yl]-L-norvaline]
320	81	CN1Cc2c(C3=CCC(N[C@@H](Cc4ccc(O)cc4)C(=O)O)CC3)[nH]c3nccc(c23)-c2cc(F)ccc21 (stereo partly drawn) [Example 40, N-[4-(10-fluoro-7-methyl-6,7-dihydro-4H-3,4,7-triazadibenzo[cd,f]azulen-5-yl)cyclohex-3-en-1-yl]-L-tyrosine]
1100	150	CN1Cc2c(C3=CCC(C(=O)O)CC3)[nH]c3nccc(c23)-c2cc(F)ccc21 (stereo not shown) [Example 41, 4-(10-fluoro-7-methyl-6,7-dihydro-4H-3,4,7-triazadibenzo[cd,f]azulen-5-yl)cyclohex-3-ene-1-carboxylic acid]
230	66	CN1Cc2c(-c3ccc(S(C)(=O)=O)cc3)[nH]c3nccc(c23)-c2cc(F)ccc21 [Example 43, 10-fluoro-7-methyl-5-[4-(methylsulfonyl)phenyl]-6,7-dihydro-4H-3,4,7-triazadibenzo[cd,f]azulene]
490	130	CN1Cc2c(-c3ccncc3)[nH]c3nccc(c23)-c2cc(F)ccc21 [Example 44, 10-fluoro-7-methyl-5-(pyridin-4-yl)-6,7-dihydro-4H-3,4,7-triazadibenzo[cd,f]azulene]
